Data published in US20020115623A1, “Saponin derivatives useful for inhibiting sialyltransferase and biosynthesis of sialoglycoconjugate” (Shui-Tein Chen, priority 2000, published 2002).

Experiments:
[1] = molecular target: T1, α2,6-sialyltransferase (Gallus gallus, UniProt Q92183); test: Assay of α2,6-sialyltransferase activity; type: biochemical; conditions: concentration of inhibitor in assay 20 μM
T1 construct: made in house
Procedure: (§1) α2,3-Sialyltransferases were prepared by the procedures as described by Tsuji et al, Eur J Biochem., 1993, 216(2), 377-85. The suspension of enzyme-bound beads in 250 mM sodium cacodylate buffer (pH 6.4), 25 mM MgCl2, 5 mM CaCl2 was mixed with a Vortex mixer. Then, 4 μl of the enzyme suspension (1×10^−6 Units) was pipetted using a Gilson P-20 pipetter immediately after mixing. The enzyme was then premixed with 4 μl of inhibitors (75 μM) or water (as control) at 25° C. for 5 min. Then, the substrates, 1 μl of CMP-[14C]NeuAc (40 nCi/μl) and 1 μl of Galα1,3GalNAc-Obzl (0.1 mM), were added to the pre-incubated enzyme-inhibitor mixture and incubated at 37° C. for 3 h. The final concentrations of sodium cacodylate, MgCl2, CaCl2, and Galα1,3GalNAc-OBzl in the reaction mixture were 100 mM, 10 mM, 2 mM, and […], respectively. The solution was placed in the ice to stop the reaction. The resulting reaction products were immediately analyzed by silica gel 60 HPTLC plate (Merck, Germany) with a solvent system of ethanol/pyridine/n-butanol/acetate/water (100:10:10:3:30). The radioactivity of the corresponding product and total radioactivity were detected and quantified with a BAS 1500 radio-image analyzer (Fuji Film, Japan).
α2,6-Sialyltransferases were prepared by the procedures as described by Tsuji et al, J Biol Chem., 1994, 269(2), 1402-9. The assay procedures for α2,6-Sialyltransferases were the same as those for α2,3-Sialyltransferases, except that 1 μl of Galα1,3GalNAc-Obzl (0.1 mM) was replaced by 1 μl of fetuin (1 μg/μl).

[2] = molecular target: T2, α2,3-sialyltransferase (Mus musculus, UniProt P54751); test: Assay of α2,3-sialyltransferase activity; type: biochemical; conditions: for Percentage of inhibition (%): concentration of inhibitor in assay 30 μM
T2 construct: made in house
T2 sequence (P54751 1-337): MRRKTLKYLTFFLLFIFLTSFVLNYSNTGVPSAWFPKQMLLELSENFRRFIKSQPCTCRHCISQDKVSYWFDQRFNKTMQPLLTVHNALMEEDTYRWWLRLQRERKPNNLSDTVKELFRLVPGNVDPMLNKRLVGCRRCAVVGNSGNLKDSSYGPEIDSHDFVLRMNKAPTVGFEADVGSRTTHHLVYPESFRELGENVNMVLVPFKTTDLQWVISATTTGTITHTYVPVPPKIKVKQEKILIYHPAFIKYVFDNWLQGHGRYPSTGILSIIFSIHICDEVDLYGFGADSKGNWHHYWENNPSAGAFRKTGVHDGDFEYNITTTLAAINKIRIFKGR
Procedure: as §1

[3] = tested on: cell surface α2,6-sialoglycoconjugates on HepG2; test: Flow cytometry (FITC-SNA) of inhibitor-treated HepG2 cells; type: cell-based, human; conditions: for Cell surface α2,6-sialoglycoconjugates (%) on HepG2: three days, FITC-SNA stain, control 100
Procedure: (§2) Human breast cancer cell MCF7 and hepatoma cell HepG2 were incubated in 5% CO2 incubator at 37° C. with the MEM (Eagle) medium with Earle's Bss supplemented with 2 mM glutamine, 1.5 g/l sodium bicarbonate, 0.1 mM non-essential amino acids, 1.0 mM sodium pyruvate, 100 units/ml penicillin, 100 μg/ml streptomycin and 2.5 μg/ml amphotericin B and with 10% fetal bovine serum. The cells were transferred weekly to 0.025% trypsin in 0.53 mM EDTA in Ca^2+Mg^2+-free PBS.
(§3) The cells were incubated in the culture medium with 2.5% fetal bovine serum in the presence of a different concentration (5, 25, 50 and 100 μM, respectively) of the inhibitor in a 5% CO2 incubator at 37° C. for three days.
(§4) Fluorescein isothiocyanate labeled Maackia amurensis agglutinin (MAA) and Sambucus nigra agglutinin (SNA), which recognize the oligosaccharide species NeuAcα2,3-Gal-R and NeuAcα2,6-R, respectively, were purchased from Vector Labs Inc. (Burlingame, Calif.). Cells (control and inhibitor-treated). The cells scraped from dishes with a rubber policeman were washed with PBS and stained with fluorescein isothiocyanate labeled MAA and SNA, respectively, in binding buffer (10 mM HEPES, 0.15 M NaCl, pH 7.5) at 4° C. for 1 h. After centrifugation, cells were washed three times with PBS and fixed with 1% paraformaldehyde. The fluorescence intensity was measured with a FACScan flow cytometry (Becton Dickinson, Mountain View, Calif.).

[4] = tested on: α-mannosidase; test: α-Mannosidase assay; type: biochemical; set-up: Relative Activity (%): dose or concentration left out as unconfirmed
Procedure: The α-mannosidase (10 mU/90 μl, Sigma) in 500 mM sodium phosphate buffer (pH 4.5) was mixed with 10 μl inhibitor (5 mM) or water, 100 μl 4-methylumbelliferyl-[…]-mannopyranoside (0.2 mM). The resulting solution was incubated at 37° C. for 30 min. The resulting products were detected through the same procedures as those for sialidase assay.

[5] = tested on: β-galactosidase; test: β-Galactosidase assay; type: biochemical; set-up: Relative Activity (%): dose or concentration left out as unconfirmed
Procedure: […] The resulting solution was incubated at 37° C. for 30 min. The resulting products were detected through the same procedures as those for sialidase assay.

[6] = tested on: human hepatoma HepG2 cells; test: Growth inhibition of HepG2 cells; type: cell-based; conditions: FIG. 3
Procedure: as §2, with “PBS. The cells were incubated in the culture medium with 2.5% fetal bovine serum in the presence of a different concentration (5, 25, 50 and 100 μM, respectively) of the inhibitor in a 5% CO2 incubator at 37° C. for three days.” for “PBS.”

[7] = tested on: sialidase; test: Sialidase assay; type: biochemical; set-up: Relative Activity (%): dose or concentration left out as unconfirmed
Procedure: The sialidase (10 mU/90 μl, sigma) in 500 mM sodium phosphate buffer (pH 4.5) was mixed with 10 μl inhibitor (5 mM) or water, 100 μl 4-methylumbelliferyl-[…]-acetylneuraminic acid (0.2 mM, sigma). The resulting solution was incubated at 37° C. for 30 min. The solution was added 1 ml quenching buffer (0.133 M glycine-NaOH, pH 10.7, 60 mM NaCl and 41.5 mM Na2CO3) to stop the reaction. The fluorescence intensity of the resulting solution was measured by fluorescence spectrophotometer at 360 nm excitation and at 440 nm emission.

[8] = tested on: human breast cancer MCF7 cells; test: Growth inhibition of MCF7 cells; type: cell-based; conditions: FIG. 2
Procedure: as §2, with “PBS. The cells were incubated in the culture medium with 2.5% fetal bovine serum in the presence of a different concentration (5, 25, 50 and 100 μM, respectively) of the inhibitor in a 5% CO2 incubator at 37° C. for three days.” for “PBS.”

[9] = tested on: cell surface α2,3-sialoglycoconjugates on MCF7; test: Flow cytometry (FITC-MAA) of inhibitor-treated MCF7 cells; type: cell-based, human; conditions: for Cell surface α2,3-sialoglycoconjugates (%) on MCF7: three days, FITC-MAA stain, control 100
Procedure: as §2, §3, §4

[10] = tested on: fucosyltransferase; test: Fucosyltransferase assay; type: biochemical; conditions: FIG. 1
Procedure: The fucosyltransferase (1 mU/10 μl, Calbiochem) in 100 mM Tris-HCl buffer (pH 7.5) and 40 mM MnCl2 was mixed with 4 μl inhibitor or water, 4 μl N-acetylglucosamine (1 mM) and 2 μl GDP-[^14C]fucose (20 nCi). The resulting solution was incubated at 37° C. for one hour. The reaction products were detected through the same procedures as those for sialyltransferase assay.

T1 sequence (Q92183 whole entry): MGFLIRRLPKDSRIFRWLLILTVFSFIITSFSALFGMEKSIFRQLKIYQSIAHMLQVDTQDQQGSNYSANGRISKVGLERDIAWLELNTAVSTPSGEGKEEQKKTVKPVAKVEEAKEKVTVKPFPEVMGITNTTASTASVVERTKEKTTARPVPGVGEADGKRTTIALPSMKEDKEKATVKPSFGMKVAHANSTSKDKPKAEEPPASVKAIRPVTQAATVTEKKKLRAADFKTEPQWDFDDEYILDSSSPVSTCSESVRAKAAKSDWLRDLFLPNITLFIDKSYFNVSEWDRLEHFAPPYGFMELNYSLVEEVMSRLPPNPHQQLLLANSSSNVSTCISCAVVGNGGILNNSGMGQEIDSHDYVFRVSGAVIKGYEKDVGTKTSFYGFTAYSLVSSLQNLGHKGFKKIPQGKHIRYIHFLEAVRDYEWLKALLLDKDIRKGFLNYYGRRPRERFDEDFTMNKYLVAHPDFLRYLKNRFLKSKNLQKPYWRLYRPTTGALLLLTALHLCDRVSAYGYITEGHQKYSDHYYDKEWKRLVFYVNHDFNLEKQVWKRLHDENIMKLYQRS

CC1OC(OC2C(OC3C(OC4CCC5(C)C(CCC6(C)C5CC=C5C7CC(C)(C)CC(O)C7(C)CCC56C)C4(C)C)OC(C(=O)O)C(O)C3O)OC(CO)C(O)C2O)C(O)C(O)C1O (centres unmarked) [kaikasaponin III]
Percentage of inhibition (%) [1]: 83.2% | Percentage of inhibition (%) [2]: 95.5%

C[C@@H]1O[C@@H](O[C@H]2[C@H](O[C@H]3[C@H](O[C@H]4CC[C@@]5(C)[C@@H](CC[C@]6(C)[C@@H]5CC=C5[C@@H]7CC(C)(C)C[C@@H](O)[C@]7(C)CC[C@]56C)[C@@]4(C)CO)O[C@H](C(=O)O)[C@@H](O)[C@@H]3O)OC[C@H](O)[C@@H]2O)[C@H](O)[C@H](O)[C@H]1O [soyasaponin II]
Percentage of inhibition (%) [1]: 64.4% | Percentage of inhibition (%) [2]: 93.3%

C[C@@H]1O[C@@H](O[C@H]2[C@H](O[C@H]3[C@H](O[C@H]4CC[C@@]5(C)[C@@H](CC[C@]6(C)[C@@H]5CC=C5[C@@H]7CC(C)(C)C[C@@H](O)[C@]7(C)CC[C@]56C)[C@@]4(C)CO)O[C@H](C(=O)O)[C@@H](O)[C@@H]3O)O[C@H](CO)[C@H](O)[C@@H]2O)[C@H](O)[C@H](O)[C@H]1O [soyasaponin I]
Cell surface α2,6-sialoglycoconjugates (%) on HepG2 ([3]; 5 μM): 96.5% | Cell surface α2,6-sialoglycoconjugates (%) on HepG2 ([3]; 25 μM): 85.1% | Cell surface α2,6-sialoglycoconjugates (%) on HepG2 ([3]; 50 μM): 76.4% | decrease of cell surface α2,6-sialoglyconjugates of HepG2 cells ([3]; 100 μM): about 60% | Cell surface α2,6-sialoglycoconjugates (%) on HepG2 ([3]; 100 μM): 41.4% | inhibition of mannosidase (in words) ([4]; Table 3): did not inhibit | Relative Activity (%) ([4]; soyasaponin I, control 100): 99.4% | inhibition of galactosidase (in words) ([5]; Table 3): did not inhibit | Relative Activity (%) ([5]; soyasaponin I, control 100): 112.0% | growth of human hepatoma HepG2 cells (in words) [6]: inhibited the growth | inhibition of sialidase (in words) ([7]; Table 3): did not inhibit | Relative Activity (%) ([7]; soyasaponin I, control 100): 142.0% | Percentage of inhibition (%) [1]: 76.9% | growth of human breast cancer MCF7 cells (in words) [8]: inhibited the growth | Cell surface α2,3-sialoglycoconjugates (%) on MCF7 ([9]; 5 μM): 99.5% | Cell surface α2,3-sialoglycoconjugates (%) on MCF7 ([9]; 25 μM): 68.0% | Cell surface α2,3-sialoglycoconjugates (%) on MCF7 ([9]; 50 μM): 56.8% | decrease of the α2,3-sialoglyconjugates of MCF7 cells ([9]; 100 μM): about 80% | Cell surface α2,3-sialoglycoconjugates (%) on MCF7 ([9]; 100 μM): 19.8% | inhibition of fucosyltransferase (in words) [10]: not for fucosyltransferase | inhibition of sialyltransferases (in words) ([2]; FIG. 1, sialyltransferases, type not specified): specifically inhibited | Percentage of inhibition (%) [2]: 89.9%

soyasaponin I-Me
Percentage of inhibition (%) [1]: 32.2% | Percentage of inhibition (%) [2]: 63.8%

CC1(C)C[C@@H](O)[C@]2(C)CC[C@]3(C)C(=CC[C@@H]4[C@@]5(C)CC[C@H](O[C@@H]6O[C@H](C(=O)O)[C@@H](O)[C@H](O)[C@H]6O[C@@H]6O[C@H](CO)[C@H](O)[C@H](O)[C@H]6O)[C@](C)(CO)[C@@H]5CC[C@]43C)[C@@H]2C1 [soyasaponin III]
Percentage of inhibition (%) [1]: 23.1% | Percentage of inhibition (%) [2]: 61.5%

CC1(C)CC(O)C2(C)CCC3(C)C(=CCC4C5(C)CCC(OC6OC(C(=O)O)C(O)C(O)C6OC6OC(CO)C(O)C(O)C6OC6OC(CO)C(O)C(O)C6O)C(C)(CO)C5CCC43C)C2C1 (centres unmarked) [soyasaponin V]
Percentage of inhibition (%) [1]: 32.9% | Percentage of inhibition (%) [2]: 79.6%
